Assays:
Test in all cases: relative viability (nuclei count vs DMSO), 5 days (fraction); higher = more cells survive
FH535 + Lapatinib = compound: CC1=C(C=CC(=C1)[N+](=O)[O-])NS(=O)(=O)C2=C(C=CC(=C2)Cl)Cl [FH535] + CS(=O)(=O)CCNCc1ccc(-c2ccc3ncnc(Nc4ccc(OCc5cccc(F)c5)c(Cl)c4)c3c2)o1 [Lapatinib] (partner 2 µM)
Summary of the method: (§1)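 Relative viability was taken as the ratio of nuclei in treated wells to nuclei in vehicle wells. Lung cancer cell lines in 1536-well plates received compounds by pin tool one day after seeding, either one drug alone or a fixed anchor-drug dose plus five library-drug doses (not always all listed) in √10 steps. Nuclei were counted on 4× images after 5 days of treatment, and values are medians of duplicate plates.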

FH535 + Pictilisib = compound: CC1=C(C=CC(=C1)[N+](=O)[O-])NS(=O)(=O)C2=C(C=CC(=C2)Cl)Cl [FH535] + CS(=O)(=O)N1CCN(Cc2cc3nc(-c4cccc5[nH]ncc45)nc(N4CCOCC4)c3s2)CC1 [Pictilisib] (partner 1 µM)
Summary of the method: as §1

FH535 + Alpelisib = compound: CC1=C(C=CC(=C1)[N+](=O)[O-])NS(=O)(=O)C2=C(C=CC(=C2)Cl)Cl [FH535] + Cc1nc(NC(=O)N2CCC[C@H]2C(N)=O)sc1-c1ccnc(C(C)(C)C(F)(F)F)c1 [Alpelisib] (partner 2 µM)
Summary of the method: as §1

FH535 + Dasatinib = compound: CC1=C(C=CC(=C1)[N+](=O)[O-])NS(=O)(=O)C2=C(C=CC(=C2)Cl)Cl [FH535] + Cc1nc(Nc2ncc(C(=O)Nc3c(C)cccc3Cl)s2)cc(N2CCN(CCO)CC2)n1 [Dasatinib] (partner 0.075 µM)
Summary of the method: as §1

FH535 + Phenformin = compound: CC1=C(C=CC(=C1)[N+](=O)[O-])NS(=O)(=O)C2=C(C=CC(=C2)Cl)Cl [FH535] + N=C(N)NC(=N)NCCc1ccccc1 [Phenformin] (partner 250 µM)
Summary of the method: as §1

Cell Line	relative viability (FH535 + Lapatinib; first compound 0.04 µM)	relative viability (FH535 + Lapatinib; first compound 0.1265 µM)	relative viability (FH535 + Lapatinib; first compound 0.4 µM)	relative viability (FH535 + Lapatinib; first compound 1.265 µM)	relative viability (FH535 + Pictilisib; first compound 0.04 µM)	relative viability (FH535 + Pictilisib; first compound 0.1265 µM)	relative viability (FH535 + Pictilisib; first compound 0.4 µM)	relative viability (FH535 + Pictilisib; first compound 1.265 µM)	relative viability (FH535 + Alpelisib; first compound 0.04 µM)	relative viability (FH535 + Alpelisib; first compound 0.1265 µM)	relative viability (FH535 + Alpelisib; first compound 0.4 µM)	relative viability (FH535 + Alpelisib; first compound 1.265 µM)	relative viability (FH535 + Dasatinib; first compound 0.04 µM)	relative viability (FH535 + Dasatinib; first compound 0.1265 µM)	relative viability (FH535 + Dasatinib; first compound 0.4 µM)	relative viability (FH535 + Dasatinib; first compound 1.265 µM)	relative viability (FH535 + Phenformin; first compound 0.04 µM)	relative viability (FH535 + Phenformin; first compound 0.1265 µM)	relative viability (FH535 + Phenformin; first compound 0.4 µM)	relative viability (FH535 + Phenformin; first compound 1.265 µM)
HCC-78	0.694	0.321	0.701	0.697	0.193	0.223	0.187	0.204	0.345	0.396	0.361	0.302	0.33	0.514	0.342	0.427	0.626	0.783	0.63	0.592
HCC-366	1	1.11	0.999	0.913	0.132	0.137	0.116	0.125	0.35	0.485	0.478	0.349	0.571	0.713	0.632	0.487	0.607	0.522	0.48	0.41
HCC-827	0.202	0.195	0.213	0.163	0.894	1	0.824	0.728	0.954	0.972	0.926	0.446	0.35	0.291	0.273	0.364	0.407	0.387	0.383	0.313
HOP-62	0.886	0.87	1	1.01	0.505	0.606	0.64	0.676	0.931	0.948	0.778	0.694	0.604	0.571	0.533	0.57	0.682	0.668	0.552	0.401

Reference: the supplement of paper PMC10307832
